Data published in patent US20230220047A1, “PEPTIDES FOR TREATMENT OF SEPSIS AND CANCER” (NORWEGIAN UNIVERSITY OF SCIENCE AND TECHNOLOGY (NTNU), priority 2020, published 2023).
“Also recorded” adds a separate entry of the source.

Tests used:
[1] = tested on: ANBL-6 multiple myeloma cells; test: CellTiter-Glo cell viability assay, ANBL-6; assay type: cell-based
[2] = tested on: RPMI 8226 multiple myeloma cells; test: CellTiter-Glo cell viability assay, RPMI 8226; assay type: cell-based, human; details: RPMI 8226, 10 μM, 48 h
Experimental: Minor effects on the proliferation of the IH-1 and RPMI 8226 cell lines are seen. Cells were seeded at the level shown (left-hand bar of each set) then incubated in medium containing water, 10 μM penetratin or 10 μM P7-A4-Pen for 48 hr (except for INA-6 cells, which were incubated with 12.5 μM penetratin or 12.5 μM P7-A4-Pen). The number of viable cells was detected based on quantitation of ATP by luminescent signal in correlation to a standard curve prepared for each cell line. Results are based on 3-5 biological replicates for each condition, error bars show standard deviation of mean.
Multiple myeloma cells JJN-3 (DSMZ (Germany) no. ACC 541), ANBL-6 (Cellosaurus accession number CVCL_5425, obtained from Dr Diane Jelinek, Mayo Clinic, Rochester, Minn.), INA-6 (Cellosaurus accession number CVCL_5209, obtained from Dr M. Gramatzki, University of Erlangen-Nurnberg, Erlangen, Germany), RPMI-8226 (ATCC CCL-155), and IH-1 (Cellosaurus accession number CVCL_WZ44, established from the pleural effusion of a myeloma patient by Myeloma research group, IKOM, NTNU, Trondheim, Norway) were grown in RPMI-1640 (Sigma-Aldrich Norway, Oslo, Norway) supplemented with 100 nM penicillin/streptomycin and 10% FCS, and for ANBL-6, IH-1 and INA-6 cells 2 ng/ml recombinant IL-6 (Gibco, Thermo Fisher Scientific, Waltham, Mass., USA). […]

TLR7 = test: qPCR of R837-induced TLR7-mediated cytokine expression in human monocytes; assay type: cell-based; details: 15 μM, R837 1 μg/ml
Experimental: Cells were pre-treated with 15 μM peptides for 30 min, followed by the addition of LPS (100 ng/ml) (A), R837 (1 μg/ml) (B) or CL075 (1 μg/ml) for increasing lengths of time.
As previously shown, P7-Pen inhibits TLR8-mediated IFNβ expression in human monocytes, without significant effect on the expression of pro-inflammatory cytokines. Human cells express one more endosomal RNA sensor in addition to TLR8: TLR7, which uses similar signaling pathways to induce cytokine expression as the TLR8 receptor. To investigate the effect of P7-Pen on TLR7-mediated signaling, human monocytes were stimulated with imiquimod (R837), an imidazoquinoline amine analog to guanosine, which activates only TLR7, not TLR8 (Lee et al., PNAS 100(11): 6646-6651 (2003)). […] TNF and IL-1β expression were not induced in monocytes by the R837 TLR7 agonist even in control treated cells (FIG. 18C).

MyD88 signaling complex = target: T1, MyD88 signaling complex (Homo sapiens, UniProt P51617+Q99836+Q9NWZ3); test: IRAK immunoprecipitations from LPS-stimulated human monocytes; assay type: cell-based; details: 15 μM, LPS 100 ng/ml
T1 construct: abrogated IRAK1, 2 and 4 recruitment to the MyD88 signaling complex in human monocytes; endogenous in cells; host or cells: primary human monocytes, LPS-stimulated
T1 sequence (Q99836 whole entry): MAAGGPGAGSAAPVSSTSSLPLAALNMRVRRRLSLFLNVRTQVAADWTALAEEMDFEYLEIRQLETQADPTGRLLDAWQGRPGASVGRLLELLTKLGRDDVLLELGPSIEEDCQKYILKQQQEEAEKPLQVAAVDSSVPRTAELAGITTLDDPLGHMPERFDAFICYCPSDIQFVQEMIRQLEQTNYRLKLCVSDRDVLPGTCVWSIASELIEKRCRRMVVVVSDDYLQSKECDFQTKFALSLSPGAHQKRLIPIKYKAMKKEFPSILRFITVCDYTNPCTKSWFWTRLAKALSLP
T1 sequence (P51617 whole entry): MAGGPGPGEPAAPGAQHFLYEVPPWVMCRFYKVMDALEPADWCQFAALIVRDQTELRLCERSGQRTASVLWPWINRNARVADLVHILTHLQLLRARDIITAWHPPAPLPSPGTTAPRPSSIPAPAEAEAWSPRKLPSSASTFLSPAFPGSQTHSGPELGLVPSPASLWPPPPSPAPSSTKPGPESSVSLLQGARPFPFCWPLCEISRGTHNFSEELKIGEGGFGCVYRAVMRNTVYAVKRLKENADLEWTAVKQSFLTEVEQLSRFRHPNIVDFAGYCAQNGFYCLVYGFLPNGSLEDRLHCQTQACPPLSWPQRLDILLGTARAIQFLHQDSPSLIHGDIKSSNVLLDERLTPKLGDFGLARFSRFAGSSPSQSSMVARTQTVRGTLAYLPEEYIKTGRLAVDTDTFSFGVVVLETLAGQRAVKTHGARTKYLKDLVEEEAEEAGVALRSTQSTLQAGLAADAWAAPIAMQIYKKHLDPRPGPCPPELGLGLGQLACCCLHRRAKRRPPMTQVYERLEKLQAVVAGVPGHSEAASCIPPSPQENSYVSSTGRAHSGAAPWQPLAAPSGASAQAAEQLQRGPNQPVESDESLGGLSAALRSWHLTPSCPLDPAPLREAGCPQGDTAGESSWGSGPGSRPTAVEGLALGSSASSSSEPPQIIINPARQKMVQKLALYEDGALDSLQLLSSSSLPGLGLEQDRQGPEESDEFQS
T1 sequence (Q9NWZ3 whole entry): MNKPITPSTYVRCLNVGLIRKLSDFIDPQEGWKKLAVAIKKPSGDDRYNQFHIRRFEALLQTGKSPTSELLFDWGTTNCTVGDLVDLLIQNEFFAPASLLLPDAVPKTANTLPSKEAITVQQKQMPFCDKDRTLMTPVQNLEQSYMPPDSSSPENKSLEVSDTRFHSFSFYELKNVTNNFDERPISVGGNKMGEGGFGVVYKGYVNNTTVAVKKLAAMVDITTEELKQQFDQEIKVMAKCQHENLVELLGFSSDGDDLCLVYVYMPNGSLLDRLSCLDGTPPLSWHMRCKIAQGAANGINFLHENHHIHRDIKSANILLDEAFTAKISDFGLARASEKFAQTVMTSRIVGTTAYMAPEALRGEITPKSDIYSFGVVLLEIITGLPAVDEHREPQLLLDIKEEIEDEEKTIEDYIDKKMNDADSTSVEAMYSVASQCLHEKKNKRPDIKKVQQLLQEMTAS
Experimental: Cell were pre-treated with Pen or P7-Pen (15 μM) for 30 min before addition of LPS (100 ng/ml) for specified time periods. Precipitations were performed using sheep anti-IRAK4 (A), anti-IRAK1 (B) and anti-IRAK2 (C) polyclonal antibodies covalently bound to magnetic beads, followed by Western blot analysis of lysates and precipitated proteins.
Pre-treatment of monocytes with P7-Pen abrogated recruitment of all tested IRAKs (1,2 and 4) to MyD88 (FIG. 28). This could be achieved by the peptide disrupting the Mal-MyD88 interaction, Mal-IRAK interactions or MyD88-IRAK interactions. Since IL-1R-initiated signalling through the Myddosome complex is not inhibited by the P7 peptide (see above), it is most likely that P7 interferes with Mal-IRAK interactions or the Mal-MyD88 interaction, rather than MyD88-IRAK interactions (since Mal is not involved in IL-1R signaling).

Substance	combination effect with melphalan at low melphalan concentrations ([1]; ANBL-6, 5 μM peptide)	cytotoxic effect of combination with melphalan relative to peptide or melphalan alone ([1]; ANBL-6, 5 μM peptide plus melphalan 8-20 μM, 48 h)	cell proliferation [2]	TLR7-mediated IFNβ mRNA expression (TLR7)	TLR7-mediated IL-6 expression (TLR7)	recruitment of IRAKs (1, 2 and 4) to MyD88 (MyD88 signaling complex)
Ac-ITVAASVTLTGRQIKIWFQNRRMKWKK-NH2 [Peptide P7-A4-Pen]	synergistic effect	much-enhanced cytotoxic effect	Minor effects; also recorded: inhibited cell proliferation			
Ac-ITVYASVTLTGRQIKIWFQNRRMKWKK-NH2 [Peptide P7-Pen]				inhibits	delayed activation	abrogated
